# Structures can show the parent of a compound that is named as a salt. Where two headings read alike, the source gives them in different places.
# Key:
# [1] = target: T1, SARS-CoV-2 PLpro (nsp3 1564–1878) (Severe acute respiratory syndrome coronavirus 2, UniProt P0DTD1); experiment: biochemical; parameters: FRET-quenched peptide (Pro3) cleavage by PLpro, 10 min pre-incubation, slope over 20 min, normalised to no-compound control; settings: high concentration screen, read-out: % of control remaining
# [2] = target: T1, SARS-CoV-2 PLpro (nsp3 1564–1878); experiment: biochemical; parameters: FRET-quenched peptide (Pro3) cleavage by PLpro, 10 min pre-incubation, slope over 20 min, normalised to no-compound control; settings: low concentration screen, read-out: % of control remaining
structure (smiles),measurement,setting,value
Cc1cncc(CN2CCC(=C3c4ccc(Cl)cc4CCc4cccnc43)CC2)c1 [Rupatadine (Fumarate)],remaining activity at 3.75 µM,[1]; Well no.=7665,102%
same,remaining activity at 1.25 µM,[2]; Well no.=7665,98.2%
Cc1cncc(CN2CCC(=C3c4ccc(Cl)cc4CCc4cccnc43)CC2)c1 [Rupatadine Fumarate],remaining activity at 3.75 µM,[1]; Well no.=4925,101%
same,remaining activity at 1.25 µM,[2]; Well no.=4925,103%
O=c1c2ccccc2nc2n1CCc1c-2[nH]c2ccccc12 [Rutaecarpine],remaining activity at 3.75 µM,[1]; Well no.=1396,99.4%
same,remaining activity at 3.75 µM,[1]; Well no.=3709,101%
same,remaining activity at 1.25 µM,[2]; Well no.=1396,96.2%
same,remaining activity at 1.25 µM,[2]; Well no.=3709,100%
C[C@@H]1O[C@@H](OC[C@H]2O[C@@H](Oc3c(-c4ccc(O)c(O)c4)oc4cc(O)cc(O)c4c3=O)[C@H](O)[C@@H](O)[C@@H]2O)[C@H](O)[C@H](O)[C@H]1O [Rutin],remaining activity at 3.75 µM,[1]; Well no.=3711,106%
same,remaining activity at 1.25 µM,[2]; Well no.=3711,103%
N#CC[C@H](C1CCCC1)n1cc(-c2ncnc3[nH]ccc23)cn1 [Ruxolitinib (INCB018424)],remaining activity at 3.75 µM,[1]; Well no.=4805,104%
same,remaining activity at 1.25 µM,[2]; Well no.=4805,103%
CC(C)[C@@]1(O)[C@@H](OC(=O)c2ccc[nH]2)[C@@]2(O)[C@@]3(C)C[C@]4(O)O[C@@]5([C@H](O)[C@@H](C)CC[C@]35O)[C@@]2(O)[C@@]14C [Ryanodine],remaining activity at 3.75 µM,[1]; Well no.=3583,105%
same,remaining activity at 1.25 µM,[2]; Well no.=3583,104%
"Cc1ccc(NC2=CC(=O)c3sc(C)nc3C2=O)cc1 [Ryuvidine - 2-Methyl-5-[(4-methylphenyl)amino]-4,7-benzothiazoledione]",remaining activity at 3.75 µM,[1]; Well no.=2584,85%
same,remaining activity at 1.25 µM,[2]; Well no.=2584,86.3%
Cc1c(-c2c(-c3ccc(F)o3)sc3ncnc(O[C@H](Cc4ccccc4OCc4ccnn4CC(F)(F)F)C(=O)O)c23)ccc(OCCN2CCN(C)CC2)c1Cl [S63845],remaining activity at 3.75 µM,[1]; Well no.=7208,88.1%
same,remaining activity at 1.25 µM,[2]; Well no.=7208,92.6%
CC(C)Cc1ccc([C@H](C)C(=O)O)cc1 [S(+)-Ibuprofen],remaining activity at 3.75 µM,[1]; Well no.=825,105%
same,remaining activity at 1.25 µM,[2]; Well no.=825,103%
CC(C)NCC(O)c1ccc(O)c(O)c1 (stereo not drawn) [S(+)-Isoproterenol (+)-bitartrate],remaining activity at 3.75 µM,[1]; Well no.=823,105%
same,remaining activity at 1.25 µM,[2]; Well no.=823,102%
"CCCN1CCO[C@@H]2c3cc(O)ccc3OC[C@H]21 [S(+)-PD 128,907 hydrochloride]",remaining activity at 3.75 µM,[1]; Well no.=1265,104%
same,remaining activity at 1.25 µM,[2]; Well no.=1265,102%
CCN1CCC[C@H]1CNC(=O)c1c(O)c(Cl)cc(Cl)c1OC [S(+)-Raclopride L-tartrate],remaining activity at 3.75 µM,[1]; Well no.=1354,103%
same,remaining activity at 1.25 µM,[2]; Well no.=1354,104%
CCCN1CCC[C@@H](c2cccc(C#N)c2)C1 [S(-)-DS 121 hydrochloride],remaining activity at 3.75 µM,[1]; Well no.=596,101%
same,remaining activity at 1.25 µM,[2]; Well no.=596,100%
CCN1CCC[C@H]1CNC(=O)c1c(OC)ccc(I)c1O [S(-)-IBZM],remaining activity at 3.75 µM,[1]; Well no.=875,99.1%
same,remaining activity at 1.25 µM,[2]; Well no.=875,98.1%
CC(C)(C)NCC(O)COc1nsnc1N1CCOCC1 (stereo not drawn) [S(-)-Timolol maleate],remaining activity at 3.75 µM,[1]; Well no.=1483,96%
same,remaining activity at 1.25 µM,[2]; Well no.=1483,97.1%
CCCN(CCC)[C@H]1CCc2c(F)ccc(O)c2C1 [S(-)-UH-301 hydrochloride],remaining activity at 3.75 µM,[1]; Well no.=1334,95.3%
same,remaining activity at 1.25 µM,[2]; Well no.=1334,97.2%
N[C@@H](Cn1ccc(=O)[nH]c1=O)C(=O)O [S(-)-Willardiine],remaining activity at 3.75 µM,[1]; Well no.=1244,99.9%
same,remaining activity at 1.25 µM,[2]; Well no.=1244,100%
Brc1ccc([C@H]2CN3CCSC3=N2)cc1 [S(-)-p-Bromotetramisole oxalate],remaining activity at 3.75 µM,[1]; Well no.=99,102%
same,remaining activity at 1.25 µM,[2]; Well no.=99,104%
N[C@@H](Cn1cc(I)c(=O)[nH]c1=O)C(=O)O [S-5-Iodowillardiine],remaining activity at 3.75 µM,[1]; Well no.=1340,99.5%
same,remaining activity at 1.25 µM,[2]; Well no.=1340,102%
Nc1nc(SCc2ccc([N+](=O)[O-])cc2)c2ncn([C@@H]3O[C@H](CO)[C@@H](O)[C@H]3O)c2n1 [S-(4-Nitrobenzyl)-6-thioguanosine],remaining activity at 3.75 µM,[1]; Well no.=53,102%
same,remaining activity at 1.25 µM,[2]; Well no.=53,101%
O=[N+]([O-])c1ccc(CSc2ncnc3c2ncn3[C@@H]2O[C@H](CO)[C@@H](O)[C@H]2O)cc1 [S-(4-Nitrobenzyl)-6-thioinosine],remaining activity at 3.75 µM,[1]; Well no.=949,101%
same,remaining activity at 1.25 µM,[2]; Well no.=949,105%
C[C@@](Cc1ccc(O)c(O)c1)(NN)C(=O)O [S-(-)-Carbidopa],remaining activity at 3.75 µM,[1]; Well no.=677,97.9%
same,remaining activity at 1.25 µM,[2]; Well no.=677,99.2%
CCc1cc(Cl)c(OC)c(C(=O)NC[C@@H]2CCN(CC)C2)c1O [S-(-)-Eticlopride hydrochloride],remaining activity at 3.75 µM,[1]; Well no.=417,101%
same,remaining activity at 1.25 µM,[2]; Well no.=417,102%
[N-]=[N+]=Nc1ccc(C(=O)CSC[C@H](NC(=O)CC[C@H](N)C(=O)O)C(=O)NCC(=O)O)cc1 [S-(p-Azidophenacyl)glutathione],remaining activity at 3.75 µM,[1]; Well no.=105,110%
same,remaining activity at 1.25 µM,[2]; Well no.=105,107%
C=CCSC[C@H](N)C(=O)O [S-Allyl-L-cysteine],remaining activity at 3.75 µM,[1]; Well no.=5435,97%
same,remaining activity at 1.25 µM,[2]; Well no.=5435,99.1%
CCSC(=N)N [S-Ethylisothiourea hydrobromide],remaining activity at 3.75 µM,[1]; Well no.=459,101%
same,remaining activity at 1.25 µM,[2]; Well no.=459,102%
COC(=O)[C@@H](N)CSC/C=C(\C)CC/C=C(\C)CCC=C(C)C [S-Farnesyl-L-cysteine methylester],remaining activity at 3.75 µM,[1]; Well no.=4566,99.1%
same,remaining activity at 1.25 µM,[2]; Well no.=4566,98.6%
CSC(=N)NCCC[C@H](N)C(=O)O [S-Methyl-L-thiocitrulline acetate],remaining activity at 3.75 µM,[1]; Well no.=1024,101%
same,remaining activity at 1.25 µM,[2]; Well no.=1024,101%
CSC(=N)N [S-Methylisothiourea hemisulfate],remaining activity at 3.75 µM,[1]; Well no.=924,103%
same,remaining activity at 1.25 µM,[2]; Well no.=924,108%
CC(=O)N[C@@H](C(=O)O)C(C)(C)SN=O [S-Nitroso-N-acetylpenicillamine],remaining activity at 3.75 µM,[1]; Well no.=1045,98.3%
same,remaining activity at 1.25 µM,[2]; Well no.=1045,99.8%
N[C@@H](CCC(=O)N[C@@H](CSN=O)C(=O)NCC(=O)O)C(=O)O [S-Nitrosoglutathione],remaining activity at 3.75 µM,[1]; Well no.=855,104%
same,remaining activity at 1.25 µM,[2]; Well no.=855,103%
N#CC[C@H](C1CCCC1)n1cc(-c2ncnc3[nH]ccc23)cn1 [S-Ruxolitinib],remaining activity at 3.75 µM,[1]; Well no.=4841,97.5%
same,remaining activity at 1.25 µM,[2]; Well no.=4841,96.7%
COc1ccc(CCN2CCN(CCCc3ccccc3)CC2)cc1OC [SA4503 (dihydrochloride)],remaining activity at 3.75 µM,[1]; Well no.=6991,102%
same,remaining activity at 1.25 µM,[2]; Well no.=6991,101%
COc1ccc(CC[C@@H](OC(=O)[C@@H]2CCCCN2C(=O)[C@H](c2cc(OC)c(OC)c(OC)c2)C2CCCCC2)c2cccc(OCCN3CCOCC3)c2)cc1OC [SAFit2],remaining activity at 3.75 µM,[1]; Well no.=7064,92.2%
same,remaining activity at 1.25 µM,[2]; Well no.=7064,96.3%

# From PMC8286840, “Identifying SARS-CoV-2 antiviral compounds by screening for small molecule inhibitors of Nsp3 papain-like protease” (Biochemical Journal, 2021)
